The values below are quoted from earlier work in patent publication US20230109016A1, “IN-VITRO DIAGNOSIS OF HISTAMINE INTOLERANCE SYNDROME” (IMMUNDIAGNOSTIK AG, priority 2020, published 2023).

The target of the first data set is recombinant human kidney DAO (Homo sapiens, UniProt P19801). As to conditions: read-out: Km (Michaelis constant); isolated recombinant human kidney DAO expressed in Drosophila cells (Elmore et al. 2002).
As usually defined, the Km is the substrate concentration at which the rate is half of its maximum. Regarding `NCCc1c[nH]cn1` [histamine, 2-(4-imidazolyl)-ethylamine], the Michaelis-Menten constant (Km) was around 2.8 µM. In the case of `NCCCCN` [putrescine, 1,4-diaminobutane], the Km was around 20 µM.

In the next data set the target is T1, DAO (Homo sapiens, UniProt P19801).
T1 sequence (P19801 20-751): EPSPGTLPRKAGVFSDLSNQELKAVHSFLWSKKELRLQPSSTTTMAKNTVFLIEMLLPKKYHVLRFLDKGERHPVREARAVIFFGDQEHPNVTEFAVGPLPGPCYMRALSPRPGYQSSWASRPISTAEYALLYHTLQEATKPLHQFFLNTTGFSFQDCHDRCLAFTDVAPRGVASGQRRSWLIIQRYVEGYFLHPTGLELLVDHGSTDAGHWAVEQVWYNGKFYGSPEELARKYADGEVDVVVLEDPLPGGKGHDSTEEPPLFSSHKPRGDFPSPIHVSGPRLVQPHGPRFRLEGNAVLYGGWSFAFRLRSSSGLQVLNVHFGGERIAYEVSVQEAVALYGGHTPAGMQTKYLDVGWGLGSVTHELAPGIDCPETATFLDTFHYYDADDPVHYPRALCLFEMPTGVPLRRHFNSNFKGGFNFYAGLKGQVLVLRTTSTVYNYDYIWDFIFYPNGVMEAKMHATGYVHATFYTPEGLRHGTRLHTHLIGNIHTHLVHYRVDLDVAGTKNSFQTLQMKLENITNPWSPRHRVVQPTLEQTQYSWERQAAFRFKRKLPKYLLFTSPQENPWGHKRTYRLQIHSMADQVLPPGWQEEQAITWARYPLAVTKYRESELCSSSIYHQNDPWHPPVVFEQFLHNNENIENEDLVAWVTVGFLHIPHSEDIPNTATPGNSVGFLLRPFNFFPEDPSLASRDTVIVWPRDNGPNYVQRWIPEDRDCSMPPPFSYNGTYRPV
As to conditions: 14C-putrescine 1 micromole to 5 millimole.
Turning to `N=C(N)NN` [alpha-aminoguanidine], the “sensitivity of serum DAO (high affinity enzyme) to inhibitor” value is “sensitive”.

For a further data set, the target named is Human serum DAO (Homo sapiens, UniProt P19801). The following applies: 100 micromolar histamine in the assay.
On to `NCCc1c[nH]cn1` [histamine, 2-(4-imidazolyl)-ethylamine], for which the “inhibition of human serum DAO” value was “partly inhibited”.

Staying with this data set, now noted: histamine concentration of 500 micromoles (U.S. Pat. No. 8,003,343).
For the compound `NCCc1c[nH]cn1` [histamine, 2-(4-imidazolyl)-ethylamine], the “inhibition of human DAO activity” value is recorded as “about 60%”.

Another data set deals with MAO. As to conditions: 14C-putrescine 1 micromole to 5 millimole.
As to `C#CCN(C)[C@H](C)Cc1ccccc1` [selegiline], the “sensitivity of serum MAO (lower affinity enzyme) to inhibitor” value was “sensitive”.

The target in the next data set is T1, DAO. The following applies: presence of heparin in experiments with cell culture.
As for heparin, the “impact on the DAO level or its activity” value is “no impact”.

Tested on in another data set: not given
As to conditions: 37° C.
For `NCCc1c[nH]cn1` [histamine, 2-(4-imidazolyl)-ethylamine], the “apparent half-life in serum” value is 0.033 to 4 h.

Another data set concerns DAO. The following applies: within 30 minutes of heparin administration.
heparin: the “DAO levels in humans” value is “increase sharply”.

The target of a further data set is T2, DAO in serum (Homo sapiens, UniProt P19801).
T2 construct: host or cells: serum
T2 sequence (P19801 20-751): T1 sequence (P19801 20-751)
Conditions: not given
For `CN1CC[C@]23c4c5ccc(O)c4O[C@H]2[C@@H](O)C=C[C@H]3[C@H]1C5` [morphine], the “effect on the activity of DAO in serum” value is given as “inhibited”. For `CCOC(=O)C1(c2ccccc2)CCN(C)CC1` [pethidine], the “effect on the activity of DAO in serum” value is listed as “inhibited”. For the compound `CCCC(C)C1(CC)C(=O)NC(=S)NC1=O` (centres unmarked) [thiopental], the “effect on the activity of DAO in serum” value is listed as “inhibited”.

The data set is the same for the next values; noted with them: stated as known.
Turning to `COc1cc2c3cc1Oc1cc(ccc1O)C[C@@H]1c4c(cc(OC)c(O)c4Oc4ccc(cc4)C[C@@H]3N(C)CC2)CC[N+]1(C)C` [D-tubocurarine], the “effect on the activity of DAO in serum” value was “inhibited”. For `CC(=O)N[C@@H](CS)C(=O)O` [acetylcysteine], the “effect on the activity of DAO in serum” value is “inhibited”. In the case of `CC(=O)Oc1ccccc1C(=O)O` [acetylsalicylic acid], the “effect on the activity of DAO in serum” value is listed as “inhibited”. In the case of `C=CC[N@@+]12CC[C@@]34c5ccccc5N5/C=C6/[C@H]7C[C@H]8[C@@]9(CC[N@@+]8(CC=C)C/C7=C/CO)c7ccccc7N(/C=C(/[C@@H](C[C@@H]31)/C(=C\CO)C2)[C@H]54)[C@@H]69` [alcuronium], the “effect on the activity of DAO in serum” value is reported as “inhibited”. Turning to `C=CCc1ccccc1OCC(O)CNC(C)C` (centres unmarked) [alprenolol], the “effect on the activity of DAO in serum” value is “inhibited”. With `Nc1c(Br)cc(Br)cc1CN[C@H]1CC[C@H](O)CC1` [ambroxol], the “effect on the activity of DAO in serum” value was “inhibited”. Take `N=C(N)NC(=O)c1nc(Cl)c(N)nc1N` [amiloride]: the “effect on the activity of DAO in serum” value is recorded as “inhibited”. For `Cn1c(=O)c2[nH]cnc2n(C)c1=O` [aminophylline], the “effect on the activity of DAO in serum” value is “inhibited”. Take `CN(C)CCC=C1c2ccccc2CCc2ccccc21` [amitriptyline]: the “effect on the activity of DAO in serum” value was “inhibited”.

Turning to `CN(C)CCn1nnnc1SCC1=C(C(=O)O)N2C(=O)[C@@H](NC(=O)Cc3csc(N)n3)[C@H]2SC1` [cefotiam], the “effect on the activity of DAO in serum” value is “inhibited”. On to `CO/N=C(\C(=O)N[C@@H]1C(=O)N2C(C(=O)O)=C(COC(N)=O)CS[C@H]12)c1ccco1` [cefuroxime], for which the “effect on the activity of DAO in serum” value is listed as “inhibited”. On to `CCN(CC)CCCC(C)Nc1ccnc2cc(Cl)ccc12` (centres unmarked) [chloroquine], for which the “effect on the activity of DAO in serum” value is given as “inhibited”. As for `CN/C(=N/CCSCc1nc[nH]c1C)NC#N` [cimetidine], the “effect on the activity of DAO in serum” value is “inhibited”.

With `O=C(O)[C@H]1/C(=C/CO)O[C@@H]2CC(=O)N21` [clavulanic acid], the “effect on the activity of DAO in serum” value was “inhibited”. With `O=P1(N(CCCl)CCCl)NCCCO1` (centres unmarked) [cyclophosphamide], the “effect on the activity of DAO in serum” value was “inhibited”. As for `N/N=c1\[nH][nH]/c(=N\N)c2ccccc12` [dihydralazin], the “effect on the activity of DAO in serum” value is recorded as “inhibited”. Regarding `CC(CCc1ccc(O)cc1)NCCc1ccc(O)c(O)c1` (centres unmarked) [dobutamine], the “effect on the activity of DAO in serum” value is “inhibited”.

As for `NNC(=O)c1ccncc1` [isoniazid], the “effect on the activity of DAO in serum” value is listed as “inhibited”.

As for `Cc1c(N(C)CS(=O)(=O)O)c(=O)n(-c2ccccc2)n1C` [metamizole], the “effect on the activity of DAO in serum” value was “inhibited”.

For the compound `CCN(CC)CCNC(=O)c1cc(Cl)c(N)cc1OC` [metoclopramide], the “effect on the activity of DAO in serum” value is “inhibited”.

As for `CC(=O)O[C@H]1C[C@@H]2CC[C@@H]3[C@H](CC[C@@]4(C)[C@H]3C[C@H]([N+]3(C)CCCCC3)[C@@H]4OC(C)=O)[C@@]2(C)C[C@@H]1[N+]1(C)CCCCC1` [pancuronium], the “effect on the activity of DAO in serum” value was “inhibited”. Take `N=C(N)c1ccc(OCCCCCOc2ccc(C(=N)N)cc2)cc1` [pentamidin]: the “effect on the activity of DAO in serum” value is given as “inhibited”. In the case of `CCCNC(C)C(=O)Nc1ccccc1C` (centres unmarked) [prilocaine], the “effect on the activity of DAO in serum” value is listed as “inhibited”.
